Reference: the supplement of paper PMC10307832

What was measured:
Assay in all cases: relative viability (nuclei count vs DMSO), 5 days (fraction); higher = more cells survive
BMX-IN-1 + Navitoclax = compound: C=CC(=O)Nc1cc(-n2c(=O)ccc3cnc4ccc(-c5ccc(NS(C)(=O)=O)cc5)cc4c32)ccc1C [BMX-IN-1] + CC1(C)CCC(c2ccc(Cl)cc2)=C(CN2CCN(c3ccc(C(=O)NS(=O)(=O)c4ccc(N[C@H](CCN5CCOCC5)CSc5ccccc5)c(S(=O)(=O)C(F)(F)F)c4)cc3)CC2)C1 [Navitoclax] (partner 0.5 µM)
Procedure, shortened: (§1)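 Relative viability is defined as nuclei in treated wells over nuclei in vehicle wells. Duplicate plates were run and medians reported. Lung cancer cell lines in 1536-well plates were dosed by pin tool one day after seeding, with one drug or with a fixed anchor-drug dose plus five library-drug doses (not always all listed) in √10 steps, and nuclei were counted after 5 days.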

PAC-1 + OSI-027 = compound: C=CCc1cccc(/C=N/NC(=O)CN2CCN(Cc3ccccc3)CC2)c1O [PAC-1] + COc1cccc2cc(-c3nc([C@H]4CC[C@H](C(=O)O)CC4)n4ncnc(N)c34)[nH]c12 [OSI-027] (partner 0.5 µM)
Procedure, shortened: as §1

BMX-IN-1 + Trametinib = compound: C=CC(=O)Nc1cc(-n2c(=O)ccc3cnc4ccc(-c5ccc(NS(C)(=O)=O)cc5)cc4c32)ccc1C [BMX-IN-1] + CC(=O)Nc1cccc(-n2c(=O)n(C3CC3)c(=O)c3c(Nc4ccc(I)cc4F)n(C)c(=O)c(C)c32)c1 [Trametinib] (partner 0.02 µM)
Procedure, shortened: as §1

Ibrutinib + Alpelisib = compound: C=CC(=O)N1CCC[C@@H](n2nc(-c3ccc(Oc4ccccc4)cc3)c3c(N)ncnc32)C1 [Ibrutinib] + Cc1nc(NC(=O)N2CCC[C@H]2C(N)=O)sc1-c1ccnc(C(C)(C)C(F)(F)F)c1 [Alpelisib] (partner 2 µM)
Procedure, shortened: as §1

## SK-MES-1
BMX-IN-1 + Navitoclax; first compound 0.02 µM
  relative viability: 1.45
BMX-IN-1 + Navitoclax; first compound 0.2 µM
  relative viability: 1.45
BMX-IN-1 + Navitoclax; first compound 0.6325 µM
  relative viability: 1.23
BMX-IN-1 + Navitoclax; first compound 2 µM
  relative viability: 1.1
PAC-1 + OSI-027; first compound 0.02 µM
  relative viability: 0.651
PAC-1 + OSI-027; first compound 0.06325 µM
  relative viability: 0.636
PAC-1 + OSI-027; first compound 0.2 µM
  relative viability: 0.533
PAC-1 + OSI-027; first compound 2 µM
  relative viability: 0.645
BMX-IN-1 + Trametinib; first compound 0.02 µM
  relative viability: 0.603
BMX-IN-1 + Trametinib; first compound 0.2 µM
  relative viability: 0.542
BMX-IN-1 + Trametinib; first compound 0.6325 µM
  relative viability: 0.561
BMX-IN-1 + Trametinib; first compound 2 µM
  relative viability: 0.537
Ibrutinib + Alpelisib; first compound 0.005 µM
  relative viability: 0.441
Ibrutinib + Alpelisib; first compound 0.01581 µM
  relative viability: 0.842
Ibrutinib + Alpelisib; first compound 0.05 µM
  relative viability: 0.599
Ibrutinib + Alpelisib; first compound 0.1581 µM
  relative viability: 1
Ibrutinib + Alpelisib; first compound 0.5 µM
  relative viability: 0.379
